In ChEMBL document CHEMBL4028808, “Design and synthesis of selective CDK8/19 dual inhibitors: Discovery of 4,5-dihydrothieno[3',4':3,4]benzo[1,2-d]isothiazole derivatives” (Bioorg Med Chem, 2017) one finds inhibition, IC50 and GI50 data, which are given here for one molecule.

Assay [1] deals with Serine/threonine-protein kinase PLK1 (Homo sapiens) (UniProt P53350). The assay can be described thus: Inhibition of PLK1 (unknown origin) at 1 uM using alpha-casein as substrate preincubated for 5 mins followed by substrate addition measured after 60 mins in presence of [gamma33P]ATP by scintillation counter method relative to control.
Sequence of Serine/threonine-protein kinase PLK1 (Homo sapiens) (P53350 whole entry, canonical isoform): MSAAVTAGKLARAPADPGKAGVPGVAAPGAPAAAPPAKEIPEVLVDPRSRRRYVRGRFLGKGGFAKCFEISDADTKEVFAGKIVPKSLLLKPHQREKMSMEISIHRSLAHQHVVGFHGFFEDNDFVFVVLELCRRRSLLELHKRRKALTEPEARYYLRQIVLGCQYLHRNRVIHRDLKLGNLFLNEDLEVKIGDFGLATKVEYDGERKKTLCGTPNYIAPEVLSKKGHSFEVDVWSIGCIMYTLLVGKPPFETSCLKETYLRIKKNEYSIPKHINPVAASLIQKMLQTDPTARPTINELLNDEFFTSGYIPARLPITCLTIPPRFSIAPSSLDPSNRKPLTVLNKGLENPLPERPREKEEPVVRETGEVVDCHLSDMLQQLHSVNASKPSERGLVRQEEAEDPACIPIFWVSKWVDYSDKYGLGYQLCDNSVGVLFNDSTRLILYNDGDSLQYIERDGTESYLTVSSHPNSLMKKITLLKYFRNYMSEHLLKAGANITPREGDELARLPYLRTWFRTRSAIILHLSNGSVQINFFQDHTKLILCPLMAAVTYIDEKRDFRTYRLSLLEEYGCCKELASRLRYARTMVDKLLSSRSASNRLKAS
In assay [2] the target is Casein kinase I isoform delta (Homo sapiens) (UniProt P48730). The assay can be described thus: Inhibition of CK1delta (unknown origin) at 1 uM using CK1tide as substrate preincubated for 5 mins followed by substrate addition measured after 20 mins in presence of [gamma33P]ATP by scintillation counter method relative to control.
Sequence of Casein kinase I isoform delta (Homo sapiens) (P48730 whole entry, looked up, canonical isoform): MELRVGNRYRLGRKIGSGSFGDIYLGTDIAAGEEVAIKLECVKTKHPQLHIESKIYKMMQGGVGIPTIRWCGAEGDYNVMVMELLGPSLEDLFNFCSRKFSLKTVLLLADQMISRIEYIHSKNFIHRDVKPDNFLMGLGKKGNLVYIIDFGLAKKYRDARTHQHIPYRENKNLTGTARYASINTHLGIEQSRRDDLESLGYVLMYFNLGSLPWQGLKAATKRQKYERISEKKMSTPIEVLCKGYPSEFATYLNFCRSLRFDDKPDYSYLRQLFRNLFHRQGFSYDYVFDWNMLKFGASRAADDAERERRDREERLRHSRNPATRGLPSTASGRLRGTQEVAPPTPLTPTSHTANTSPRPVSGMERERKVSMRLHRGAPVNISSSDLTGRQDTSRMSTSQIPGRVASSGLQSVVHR
The target in assay [3] is Cyclin-C/Cyclin-dependent kinase 19 (Homo sapiens, UniProt Q9BWU1). The assay can be described thus: Inhibition of kinase tracer-236 binding to GST-tagged CDK19/CyclinC (unknown origin) after 60 mins by TR-FRET assay. It counts as protein-complex assay. In general terms: In TR-FRET formats the signal depends on donor and acceptor labels being close together.
Sequence of Cyclin-C/Cyclin-dependent kinase 19 (Q9BWU1 whole entry): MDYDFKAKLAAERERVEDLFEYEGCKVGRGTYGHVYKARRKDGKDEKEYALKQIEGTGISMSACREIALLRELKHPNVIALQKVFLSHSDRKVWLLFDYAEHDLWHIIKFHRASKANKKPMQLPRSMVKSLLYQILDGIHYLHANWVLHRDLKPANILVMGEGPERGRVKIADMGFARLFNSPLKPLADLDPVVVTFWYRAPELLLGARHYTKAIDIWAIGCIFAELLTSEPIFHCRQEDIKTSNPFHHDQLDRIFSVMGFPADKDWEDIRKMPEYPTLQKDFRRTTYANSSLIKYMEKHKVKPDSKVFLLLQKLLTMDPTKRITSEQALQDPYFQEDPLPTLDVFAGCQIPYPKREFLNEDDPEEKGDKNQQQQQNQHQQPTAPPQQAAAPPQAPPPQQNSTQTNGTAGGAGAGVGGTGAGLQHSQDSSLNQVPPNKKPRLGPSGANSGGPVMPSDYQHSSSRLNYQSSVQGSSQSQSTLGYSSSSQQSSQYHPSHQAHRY
Sequence of Cyclin-C/Cyclin-dependent kinase 19 (P24863 whole entry, further chain): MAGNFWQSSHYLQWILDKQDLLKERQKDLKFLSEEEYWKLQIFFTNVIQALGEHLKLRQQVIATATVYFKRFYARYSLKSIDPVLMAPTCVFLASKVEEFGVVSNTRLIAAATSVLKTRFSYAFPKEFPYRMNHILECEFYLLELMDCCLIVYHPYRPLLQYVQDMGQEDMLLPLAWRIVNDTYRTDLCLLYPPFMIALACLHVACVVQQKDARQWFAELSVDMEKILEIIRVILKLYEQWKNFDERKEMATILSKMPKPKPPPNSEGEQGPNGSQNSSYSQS
Assay [4] has as its target Cyclin-dependent kinase 9 (Homo sapiens, UniProt P50750). The assay can be described thus: Inhibition of CDK9 (unknown origin).
The subject of assay [5] is RPMI-8226. The assay can be described thus: Growth inhibition of human RPMI8226 cells after 196 hrs by CellTiter-Glo luminescence assay. The following applies: RPMI-8226, 196 h. In kind it is functional. On the technique in general: Cellular ATP, detected with luciferase, serves as a proxy for viable cell number.

Sequence of Cyclin-dependent kinase 9 (P50750 whole entry): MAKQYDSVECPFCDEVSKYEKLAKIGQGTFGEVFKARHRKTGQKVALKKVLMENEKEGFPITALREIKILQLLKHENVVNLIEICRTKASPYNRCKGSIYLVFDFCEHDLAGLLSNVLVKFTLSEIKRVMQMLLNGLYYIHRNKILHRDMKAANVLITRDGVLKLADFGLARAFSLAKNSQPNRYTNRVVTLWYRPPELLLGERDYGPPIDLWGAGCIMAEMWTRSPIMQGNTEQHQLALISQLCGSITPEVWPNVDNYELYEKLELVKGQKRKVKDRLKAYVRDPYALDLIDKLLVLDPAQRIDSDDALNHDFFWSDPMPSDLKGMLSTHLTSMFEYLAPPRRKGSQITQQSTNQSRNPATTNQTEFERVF

Take `COCCNC(=O)c1ccc(Oc2sc(C(N)=O)c3c2-c2sncc2CC3)cn1`: the inhibition in assay [1] is 4%; in assay [2], 28%. Further, the IC50 in assay [3] turned out to be 0.99 nM; in assay [4], 270 nM. In assay [5], this molecule returned a 50% growth inhibitory concentration (GI50) of 2.5 nM.

As a reminder, the inhibition is the change of the read-out against control, counted positive when it falls. Usually IC50 stands for the midpoint of a concentration-inhibition curve. A lower IC50 goes with greater potency. By GI50 is commonly meant the concentration at which growth is held to half of that of the control. A higher GI50 goes with lower sensitivity of the cells.
